The source of these data is patent US7294636B2, “Chemical compounds” (AstraZeneca AB, priority 2003, dated 2007).

SMILES strings stand for the structures.

recombinant human CCR5 receptor, sequence (P51681 whole entry): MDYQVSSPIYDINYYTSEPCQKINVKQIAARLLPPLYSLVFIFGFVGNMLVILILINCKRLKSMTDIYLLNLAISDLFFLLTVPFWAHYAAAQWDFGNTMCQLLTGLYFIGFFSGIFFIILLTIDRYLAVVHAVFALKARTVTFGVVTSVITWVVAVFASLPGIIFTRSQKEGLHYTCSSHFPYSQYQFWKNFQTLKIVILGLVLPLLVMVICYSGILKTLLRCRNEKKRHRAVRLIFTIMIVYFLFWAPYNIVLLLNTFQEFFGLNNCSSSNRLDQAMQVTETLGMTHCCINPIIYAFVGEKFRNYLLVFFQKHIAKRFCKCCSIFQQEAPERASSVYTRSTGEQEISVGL

The assay deals with recombinant human CCR5 receptor (Homo sapiens, UniProt P51681). Nature of the assay: in vitro radioligand binding assay, inhibition of MIP-1α binding (scintillation proximity). Conditions: displacement of 0.1 nM iodinated MIP-1α; membranes from Chinese hamster ovary cells expressing CCR5; negative log10 of IC50 (M); average if tested more than once. Here is the method:
The ability of compounds to inhibit the binding of MIP-1α was assessed by an in vitro radioligand binding assay. Membranes were prepared from Chinese hamster ovary cells which expressed the recombinant human CCR5 receptor. These membranes were incubated with 0.1 nM iodinated MIP-1α, scintillation proximity beads and various concentrations of the compounds of the invention in 96-well plates. The amount of iodinated MP-1α bound to the receptor was determined by scintillation counting. Competition curves were obtained for compounds and the concentration of compound which displaced 50% of bound iodinated MIP-1α was calculated (IC50).
In Table III the results are presented as Pic50 values. […] If a compound was tested more than once then the data below is an average of the probative tests results.
On to `Cc1nnc(C(C)C)n1C1CCN(CC[C@H](c2ccc(S(C)(=O)=O)cc2)c2cccc(F)c2)CC1` [Compound No. 2], for which the half-inhibitory concentration (IC50) was 3.98e-08 M. As for `Cc1nnc(C(C)C)n1C1CCN(CC[C@H](c2ccc(S(C)(=O)=O)cc2)c2cc(F)cc(F)c2)CC1` [Compound No. 12], the figure is 2e-08 M; as for `CS(=O)(=O)c1ccc([C@@H](CCN2CCC(n3cnc4cc(S(C)(=O)=O)ccc43)CC2)c2ccsc2)cc1` [Compound No. 7], 1e-08 M. In the case of `CS(=O)(=O)c1ccc([C@@H](CCN2CCC(c3nc(Cc4ccccc4)no3)CC2)c2ccccc2)cc1` [Compound No. 4] it was 1.58e-08 M; in that of `Cc1noc(C2CCN(CC[C@@H](c3ccccc3)c3ccc(S(C)(=O)=O)cc3)CC2)n1` [Compound No. 13], 1.58e-07 M; in that of `CSc1ccc(Cc2noc(C3CCN(CCC(c4ccccc4)c4ccc(S(C)(=O)=O)cc4)CC3)n2)cc1` (stereo not shown) [Compound No. 6], 6.31e-08 M.

As to `CS(=O)(=O)c1ccc([C@@H](CCN2CCC(n3cnc4cc(S(C)(=O)=O)ccc43)CC2)c2ccccc2)cc1` [Compound No. 5], the IC50 was 3.98e-09 M. As for `CS(=O)(=O)c1ccc(Cc2noc(C3CCN(CC[C@@H](c4ccccc4)c4ccc(S(C)(=O)=O)cc4)CC3)n2)cc1` [Compound No. 3], the figure is 1.26e-09 M. As for `CS(=O)(=O)c1ccc([C@@H](CCN2CCC(n3cnc4cc(S(C)(=O)=O)ccc43)CC2)c2ccc(Cl)s2)cc1` [Compound No. 9], the IC50 is 2e-08 M. As for `CS(=O)(=O)c1ccc([C@@H](CCN2CCC(n3cnc4cc(S(C)(=O)=O)ccc43)CC2)c2cccs2)cc1` [Compound No. 8], the figure is 1e-08 M; as for `CS(=O)(=O)c1ccc([C@@H](CCN2CCC(n3cnc4cc(S(C)(=O)=O)ccc43)CC2)c2cc(F)cc(F)c2)cc1` [Compound No. 11], 1e-09 M. As for `CS(=O)(=O)c1ccc([C@@H](CCN2CCC(n3cnc4cc(S(C)(=O)=O)ccc43)CC2)c2cc(Cl)cs2)cc1` [Compound No. 10], the figure is 2e-08 M. As for `CS(=O)(=O)c1ccc([C@@H](CCN2CCC(n3cnc4cc(S(C)(=O)=O)ccc43)CC2)c2cccc(F)c2)cc1` [Compound No. 1, (R)-1-{1-[3-(3-fluoro-phenyl)-3-(4-methanesulfonyl-phenyl)-propyl]-piperidin-4-yl}-5-methanesulfonyl-1H-benzoimidazole], the figure is 1e-09 M.

As a reminder, the IC50 is the concentration that inhibits the measured activity by half.
